Assay [1] has as its target T1, hGIPR (Homo sapiens, UniProt P48546).
T1 construct: expressed in transfected cells; host or cells: CHO cells carrying a CRE-luciferase reporter gene
T1 sequence (P48546 22-466): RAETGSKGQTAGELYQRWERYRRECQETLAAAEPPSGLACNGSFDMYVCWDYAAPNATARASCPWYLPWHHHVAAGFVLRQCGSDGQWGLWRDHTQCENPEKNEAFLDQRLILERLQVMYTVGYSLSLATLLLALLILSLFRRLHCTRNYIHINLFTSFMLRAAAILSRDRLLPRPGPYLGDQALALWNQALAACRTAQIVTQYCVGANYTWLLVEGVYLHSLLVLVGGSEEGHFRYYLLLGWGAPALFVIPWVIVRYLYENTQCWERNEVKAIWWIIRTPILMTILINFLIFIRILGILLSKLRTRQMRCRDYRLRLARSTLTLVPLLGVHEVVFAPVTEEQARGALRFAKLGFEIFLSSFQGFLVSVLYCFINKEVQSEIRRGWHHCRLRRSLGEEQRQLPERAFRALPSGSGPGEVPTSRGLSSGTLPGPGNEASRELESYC
The assay is described as follows: hGIPR CreLuc reporter gene assay in 0.5% and 100% plasma. It is filed as cell-based. The following applies: CreLuc reporter gene assay. The source says: (§1) Example 1: hGLPR/hGIPR/hNPY2R CreLuc Assay in 0.5% and 100% Plasma
(§2) CHO and HEK-293 recombinant cell lines express a luciferase reporter gene under control of the cAMP responsive element (CRE). As a second recombinant protein the GLP-1 and NPY2 receptors were expressed in the reporter gene HEK cells, and the GIP receptor was expressed in the reporter gene CHO cells, respectively. Stimulation of these recombinant cells with an agonist leads to an increase of intracellular cAMP levels. In the presence of cAMP, the transcription factor CRE binding protein (CREB) binds to the CRE and to the CREB binding protein (CBP), which leads to transcription of the luciferase reporter gene. Peptides upon serial-dilution in 100% DMSO were transferred into 384-well assay plates with 5 μl pre-dispensed assay buffer (1×HBSS, 20 mM HEPES, pH7.4 supplemented with 0.5% human plasma) using acoustic dispensing on a Labcyte ECHO. Cryo-preserved transgenic reporter gene cells were thawed in assay buffer. 20 μl (10.000 cells/well) were added to the plate with the peptides and incubated for 4 hours at 37° C. in a humidified incubator. Following incubation, assay plates are equilibrated to room temperature, followed by addition of 25 μl of Bright-GIo™ Luciferase reagent, incubation at room temperature for 10 minutes and analysis of luminescence (Envision Reader). Concentration response evaluation of compounds was performed with 8 concentrations of peptides (covering four decades). EC50 values were calculated by non-linear regression using sigmoid concentration-response with variable slope. The same assays were run in the presence of 100% plasma with no additional buffer constituents.

For assay [2], the target named is T2, hGLP1R (Homo sapiens, UniProt P43220).
T2 construct: expressed in transfected cells; host or cells: HEK-293 cells carrying a CRE-luciferase reporter gene
As to the kind of experiment: hGLP1R CreLuc reporter gene assay in 0.5% and 100% plasma. It is filed as cell-based. Conditions: CreLuc reporter gene assay.
Text: as §1, §2
In general terms: Reporter assays use an easily measured gene product as a stand-in for the process of interest.

Where [3] appears, read: 0.5% human plasma, read-out: hGIPR 0.5% hP.
[4] abbreviates: 0.5% human plasma, read-out: hGLP1R 0.5% hP.
Where [5] appears, read: 100% human plasma, read-out: hGIPR 100% hP.
[6] abbreviates: 100% human plasma, read-out: hGLP1R 100% hP.

Where two headings read alike, the source gives them in different places. Starred links: 1 amine or outer side, 2 acyl side, 3 side chain; linkers in the order of their positions; H or OH if unused. Positions of bridges follow the written chain, without caps; N, C: chain ends. Non-standard residues stand in square brackets, D forms with d. Groups on a side chain read outwards from the residue. Chains are numbered I, II in the order given. *: point of attachment. C20 diacid = O=C(O)CCCCCCCCCCCCCCCCCCC(=O)*; C18 diacid = O=C(O)CCCCCCCCCCCCCCCCC(=O)*; γGlu = O=C(O)[C@H](CCC(=O)[*:2])N[*:1]; εLys = N[C@@H](CCCCN[*:1])C(=O)[*:2]; Tle = CC(C)(C)[C@H](N)C(=O)O; AEEA = NCCOCCOCC(=O)O; Aib = CC(C)(N)C(=O)O; Ahx = NCCCCCC(=O)O

T2 sequence (P43220 24-463): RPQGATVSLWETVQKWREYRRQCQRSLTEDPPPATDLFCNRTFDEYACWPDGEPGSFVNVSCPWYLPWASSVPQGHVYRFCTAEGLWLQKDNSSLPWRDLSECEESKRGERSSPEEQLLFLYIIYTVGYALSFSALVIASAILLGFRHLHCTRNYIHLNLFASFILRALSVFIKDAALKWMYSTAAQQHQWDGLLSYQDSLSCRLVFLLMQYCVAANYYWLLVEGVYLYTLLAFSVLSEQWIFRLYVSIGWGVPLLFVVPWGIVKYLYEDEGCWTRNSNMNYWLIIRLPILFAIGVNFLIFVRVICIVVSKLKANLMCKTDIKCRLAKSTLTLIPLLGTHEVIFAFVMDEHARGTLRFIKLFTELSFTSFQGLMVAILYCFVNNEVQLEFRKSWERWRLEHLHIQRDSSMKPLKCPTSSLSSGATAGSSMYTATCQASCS

With “H-Y[Aib]EGTFTSDLSI[Aib]LEKQAQ[Aib]AFVEWLIK([εLys-γGlu-γGlu-γGlu-γGlu-γGlu-γGlu-C20 diacid])GGPSSGASLRHYYNWLTRQRY-NH2 [Compound 172, Y-Aib-E-G-T-F-T-S-D-L-S-I-Aib-L-E-K-Q-A-Q-Aib-A-F-V-E-W-L-I-K(1,3)-GGPSSGASLRHYYNWLTRQRY-NH2.C20DA-gGlu-gGlu-gGlu-gGlu-gGlu-gGlu-eLys(1,2)]”, the EC50 in assay [1] (hGIPR 0.5% hP, 0.5% human plasma) came out at 0.21 nM; in assay [1] (hGIPR 100% hP, 100% human plasma), 1.83 nM; in assay [2] (hGLP1R 0.5% hP, 0.5% human plasma), 0.07 nM; in assay [2] (hGLP1R 100% hP, 100% human plasma), 2 nM.
On to “H-Y[Aib]EGTFTSDYSI[Aib]LEKQAQ[Aib]AFVEWLIK([εLys-γGlu-γGlu-γGlu-γGlu-γGlu-γGlu-C20 diacid])GGQSSGASLRHYYNWLTRQRY-NH2 [Compound 123, Y-Aib-E-G-T-F-T-S-D-Y-S-I-Aib-L-E-K-Q-A-Q-Aib-A-F-V-E-W-L-I-K(1,3)-GGQSSGASLRHYYNWLTRQRY-NH2.C20DA-gGlu-gGlu-gGlu-gGlu-gGlu-gGlu-eLys(1,2)]”, for which the figures for the EC50 in assay [1] (setting [3]) and in assay [2] (setting [4]) were 0.42 nM and 0.24 nM, respectively.
On to “H-Y[Aib]EGTFTSDYSI[Aib]LEKEKQ[Aib]AFVEWLIK([εLys-γGlu-γGlu-γGlu-γGlu-γGlu-γGlu-C20 diacid])GGPSSGASLRHYYNWLTRQRY-NH2 [Compound 69, Y-Aib-E-G-T-F-T-S-D-Y-S-I-Aib-L-E-K-E-K-Q-Aib-A-F-V-E-W-L-I-K(1,3)-GGPSSGASLRHYYNWLTRQRY-NH2.C20DA-gGlu-gGlu-gGlu-gGlu-gGlu-gGlu-eLys(1,2)]”, for which the values for the EC50 in assay [1] (setting [3]) and in assay [2] (setting [4]) were 0.8 nM and 1.48 nM, respectively.
On to “H-Y[Aib]EGTFTSDYSI[Aib]LEEQAQ[Aib]AFVEWLIK([εLys-γGlu-γGlu-γGlu-γGlu-γGlu-C20 diacid])GGPSSGASLRHYYNWLTRQRY-NH2 [Compound 181, Y-Aib-E-G-T-F-T-S-D-Y-S-I-Aib-L-E-E-Q-A-Q-Aib-A-F-V-E-W-L-I-K(1,3)-GGPSSGASLRHYYNWLTRQRY-NH2.C20DA-gGlu-gGlu-gGlu-gGlu-gGlu-eLys(1,2)]”, for which the results for the EC50 in assay [1] (setting [3]), in assay [1] (setting [5]) and in assay [2] (setting [4]) were 0.16 nM, 1.23 nM and 0.14 nM, respectively.
With “H-Y[Aib]EGTFTSDYSI[Aib]LEKQAQ[Aib]AFVQWLIK([AEEA-AEEA-γGlu-γGlu-γGlu-γGlu-C20 diacid])GGPSEGASLRHYYNWLTRQRY-NH2 [Compound 269, Y-Aib-E-G-T-F-T-S-D-Y-S-I-Aib-L-E-K-Q-A-Q-Aib-A-F-V-Q-W-L-I-K(1,3)-GGPSEGASLRHYYNWLTRQRY-NH2.C20DA-gGlu-gGlu-gGlu-gGlu-OEG-OEG(1,2)]”, the EC50 in assay [1] (setting [3]) is 0.46 nM; in assay [1] (setting [5]), 1.23 nM; in assay [2] (setting [4]) it was 0.14 nM; in assay [2] (setting [6]), 3.86 nM.
For the substance “H-Y[Aib]EGTFTSDYSI[Aib]LEKQAQ[Aib]AFVEWLIK([AEEA-γGlu-γGlu-γGlu-C18 diacid])GGPSEGASLRHYYNWLTRQRY-NH2 [Compound 300, Y-Aib-E-G-T-F-T-S-D-Y-S-I-Aib-L-E-K-Q-A-Q-Aib-A-F-V-E-W-L-I-K(1,3)-GGPSEGASLRHYYNWLTRQRY-NH2.C18DA-gGlu-gGlu-gGlu-OEG(1,2)]”, the EC50 in assay [1] (setting [3]) was 0.16 nM; in assay [1] (setting [5]) it was 1.81 nM; in assay [2] (setting [4]), 0.11 nM.
In the same order, the values of “H-Y[Aib]EGTFTSDYSI[Aib]LEKQAQ[Aib]AFVEWLIK([εLys-γGlu-γGlu-γGlu-γGlu-γGlu-γGlu-C20 diacid])GGPRSGASLRHYYNWLTRQRY-NH2 [Compound 168, Y-Aib-E-G-T-F-T-S-D-Y-S-I-Aib-L-E-K-Q-A-Q-Aib-A-F-V-E-W-L-I-K(1,3)-GGPRSGASLRHYYNWLTRQRY-NH2.C20DA-gGlu-gGlu-gGlu-gGlu-gGlu-gGlu-eLys(1,2)]” are 0.2 nM, 1.5 nM and 0.11 nM.
For “H-Y[Aib]EGTFTSDYSI[Aib]LEKQAQ[Aib]AFVEWLIK([AEEA-AEEA-γGlu-γGlu-γGlu-γGlu-γGlu-C18 diacid])GGPSSGASLRHYYNWLTRQRY-NH2 [Compound 261, Y-Aib-E-G-T-F-T-S-D-Y-S-I-Aib-L-E-K-Q-A-Q-Aib-A-F-V-E-W-L-I-K(1,3)-GGPSSGASLRHYYNWLTRQRY-NH2.C18DA-gGlu-gGlu-gGlu-gGlu-gGlu-OEG-OEG(1,2)]”, the EC50 in assay [1] (setting [3]) is 0.18 nM; in assay [1] (setting [5]) it was 1.15 nM; in assay [2] (setting [4]) it was 0.15 nM.
As to “I: H-Y[Aib]EGTFTSDYSI[Aib]LEKQAQ[Aib]EFVQWLIKGGPSEGASLRHYYNWLTRQRY-NH2 / II: {C18 diacid}-EEEEEE (amide I:28-II:C) [Compound 179, Y-Aib-E-G-T-F-T-S-D-Y-S-I-Aib-L-E-K-Q-A-Q-Aib-E-F-V-Q-W-L-I-K(1,3)-GGPSEGASLRHYYNWLTRQRY-NH2.C18DA-E-E-E-E-E-E(1,2)]”, the EC50 in assay [1] (setting [3]) stood at 0.38 nM; in assay [2] (setting [4]), 0.22 nM.
In the case of “H-Y[Aib]EGTFTSDYSI[Aib]LEKQAQ[Aib]AFVEWLIK([Ahx-γGlu-γGlu-γGlu-γGlu-γGlu-C18 diacid])GGPSEGASLRHYYNWLTRQRY-NH2 [Compound 304, Y-Aib-E-G-T-F-T-S-D-Y-S-I-Aib-L-E-K-Q-A-Q-Aib-A-F-V-E-W-L-I-K(1,3)-GGPSEGASLRHYYNWLTRQRY-NH2.C18DA-gGlu-gGlu-gGlu-gGlu-gGlu-AHX(1,2)]”, the results for the EC50 in assay [1] (setting [3]), in assay [1] (setting [5]) and in assay [2] (setting [4]) were 0.23 nM, 2.35 nM and 0.35 nM, respectively.
On to “H-Y[Aib]EGTFTSDYSI[Aib]LEKQAQ[Aib]AFVEWLIK([εLys-γGlu-γGlu-γGlu-γGlu-γGlu-γGlu-C20 diacid])GGPSSGASLRHYYN[Aib]LTRQRY-NH2 [Compound 218, Y-Aib-E-G-T-F-T-S-D-Y-S-I-Aib-L-E-K-Q-A-Q-Aib-A-F-V-E-W-L-I-K(1,3)-G-G-P-S-S-G-A-S-L-R-H-Y-Y-N-Aib-L-T-R-Q-R-Y-NH2.C20DA-gGlu-gGlu-gGlu-gGlu-gGlu-gGlu-eLys(1,2)]”, for which the EC50 in assay [1] (setting [3]) came to 0.36 nM; in assay [1] (setting [5]), 2.35 nM; in assay [2] (setting [4]), 0.16 nM.
For “H-Y[Aib]EGTFTSDYSI[Aib]LEKQAQ[Aib]AFVEWLIK([εLys-γGlu-γGlu-γGlu-γGlu-γGlu-γGlu-C20 diacid])GGPSSGADLRHYLNWLTRQRY-NH2 [Compound 72, Y-Aib-E-G-T-F-T-S-D-Y-S-I-Aib-L-E-K-Q-A-Q-Aib-A-F-V-E-W-L-I-K(1,3)-GGPSSGADLRHYLNWLTRQRY-NH2.C20DA-gGlu-gGlu-gGlu-gGlu-gGlu-gGlu-eLys(1,2)]”, the EC50 in assay [1] (setting [3]) is 0.29 nM; in assay [2] (setting [4]) it was 0.15 nM; in assay [2] (setting [6]), 2.87 nM.
Turning to “H-Y[Aib]EGTFTSDYSI[Aib]LEKQAQ[Aib]AFVEWLIK([εLys-γGlu-γGlu-γGlu-γGlu-γGlu-γGlu-C20 diacid])GGPSSGASLRHYYNW[Tle]TRQRY-NH2 [Compound 137, Y-Aib-E-G-T-F-T-S-D-Y-S-I-Aib-L-E-K-Q-A-Q-Aib-A-F-V-E-W-L-I-K(1,3)-G-G-P-S-S-G-A-S-L-R-H-Y-Y-N-W-Tle-T-R-Q-R-Y-NH2.C20DA-gGlu-gGlu-gGlu-gGlu-gGlu-gGlu-eLys(1,2)]”, the values for the EC50 in assay [1] (setting [3]), in assay [1] (setting [5]) and in assay [2] (setting [4]) were 0.28 nM, 1.5 nM and 0.12 nM, respectively.
On to “H-Y[Aib]EGTFTSDYSI[Aib]LEKQAQ[Aib]AFVQWLIK([εLys-γGlu-γGlu-γGlu-γGlu-γGlu-C20 diacid])GGPESGASLRHYYNWLTRQRY-NH2 [Compound 61, Y-Aib-E-G-T-F-T-S-D-Y-S-I-Aib-L-E-K-Q-A-Q-Aib-A-F-V-Q-W-L-I-K(1,3)-GGPESGASLRHYYNWLTRQRY-NH2.C20DA-gGlu-gGlu-gGlu-gGlu-gGlu-eLys(1,2)]”, for which the EC50 amounted to 0.36 nM in assay [1] (setting [3]), 0.56 nM in assay [1] (setting [5]), 0.11 nM in assay [2] (setting [4]) and 3.95 nM in assay [2] (setting [6]).

These data come from patent US20240247080A1, “GLP1/GIP/NPY2 RECEPTOR TRIPLE AGONISTS” (Boehringer Ingelheim International GmbH, priority 2022, published 2024).
